The source of these data is the supplement of paper PMC8967900.

The structures appear in SMILES notation.
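Further: ALL cell lines in 384-well plates, five doses spanning 10,000-fold, each plate scaled between vehicle and 100 µmol/L benzalkonium chloride controls, sDSS an adapted area-under-curve metric.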

The test system of the first assay is CCRF-HSB2. In words: selective drug sensitivity score (sDSS, relative to normal bone marrow) (sDSS (score)); higher = more potent and effective on the cell line relative to normal bone marrow cells. The conditions noted are these: 72 h.
Take `Cn1cc(-c2ccc(F)c(C(F)(F)F)c2)nc1C1CCN(c2ncnc3[nH]ncc23)CC1` (top concentration 10000 nM): the “selective drug sensitivity score” value is -0.14.

Consider `O=C(Nc1ccc2[nH]nc(-c3ccncc3)c2c1)[C@@H]1CCN(CC(=O)N2CCN(c3ccc(-c4ncccn4)cc3)CC2)C1` (top concentration 10000 nM), for which the “selective drug sensitivity score” value is 3.26.

Take `CC(C)(C)c1cc(NC(=O)Nc2ccc(Oc3ccnc4[nH]c(=O)cnc34)cc2F)n(-c2ccccc2)n1` (top concentration 25000 nM): the “selective drug sensitivity score” value turned out to be 3.12.

With `Nc1ncnc2c1nc(N)n2[C@@H]1O[C@H](CO)[C@@H](O)[C@H]1O` [8-amino-adenosine] (top concentration 50000 nM), the “selective drug sensitivity score” value is 6.98.

`CC(C)[C@@H](CS(=O)(=O)C(C)C)N1C(=O)[C@@](C)(CC(=O)O)C[C@H](c2cccc(Cl)c2)[C@H]1c1ccc(Cl)cc1` [AMG-232] (top concentration 10000 nM): the “selective drug sensitivity score” value is 9.26.

In the case of `CC(C)[C@H](C(=O)Nc1ccc(C(=O)NO)cc1)c1ccccc1` [AR-42] (top concentration 10000 nM), the “selective drug sensitivity score” value stood at 7.28.

As to `O=C(Nc1c[nH]nc1-c1nc2ccc(CN3CCOCC3)cc2[nH]1)NC1CC1` [AT9283] (top concentration 1000 nM), the “selective drug sensitivity score” value came to 11.4.

For the compound `CCN(CCO)CCCOc1ccc2c(Nc3cc(CC(=O)Nc4cccc(F)c4)[nH]n3)ncnc2c1` [AZD1152-HQPA] (top concentration 1000 nM), the “selective drug sensitivity score” value was 23.5.

With `Cc1[nH]nc(C(F)(F)F)c1Cc1sc2c(c1C(=O)N1C[C@](C)(O)CO1)c(=O)n(C)c(=O)n2C(C)C` [AZD3965] (top concentration 1000 nM), the “selective drug sensitivity score” value was 0.

The test system of another assay is COG-LL-332h. The description is as above. The conditions noted are these: 72 h.
Consider `COC12C(COC(N)=O)C3=C(C(=O)C(C)=C(N)C3=O)N1CC1NC12` (stereo in doubt) [Mitomycin_C] (top concentration 10000 nM), for which the “selective drug sensitivity score” value was -2.86.

Consider `Cc1c(-c2c(-c3ccc(F)o3)sc3ncnc(O[C@H](Cc4ccccc4OCc4ccnn4CC(F)(F)F)C(=O)O)c23)ccc(OCCN2CCN(C)CC2)c1Cl` (top concentration 1000 nM), for which the “selective drug sensitivity score” value is -5.84.

Turning to `Cc1ncc(Cl)cc1NCc1ccc(C(=O)N[C@@H](CC2CCCC2)C(=O)NC2CC2)s1` (top concentration 5000 nM), the “selective drug sensitivity score” value came out at 1.86.

On to `CCn1c(-c2nonc2N)nc2c(C#CC(C)(C)O)ncc(OC[C@H]3CCCNC3)c21` (top concentration 10000 nM), for which the “selective drug sensitivity score” value was 9.28.

For `CN(c1ncccc1CNc1nc(Nc2ccc3c(c2)CC(=O)N3)ncc1C(F)(F)F)S(C)(=O)=O` (top concentration 10000 nM), the “selective drug sensitivity score” value worked out at 2.02.

As for `CNc1ncc2cc(-c3cc(NC(=O)NCCC(C)(C)C)c(F)cc3C)c(C)nc2n1` (top concentration 10000 nM), the “selective drug sensitivity score” value came to 9.06.

For the compound `C[C@@]1(C(=O)Nc2ccc(F)nc2)CCCN1c1nc(Nc2cc(C3CC3)n[nH]2)c2cccn2n1` (top concentration 10000 nM), the “selective drug sensitivity score” value was determined as 10.5.

As for `Cc1nc(Nc2n[nH]c3c2CN(C(=O)N[C@H](CN(C)C)c2ccccc2)C3(C)C)c2sccc2n1` (top concentration 10000 nM), the “selective drug sensitivity score” value worked out at 7.58.

For `Cn1cc(-c2[nH]c3cc(NC(=O)[C@H](N)C4CCCCC4)cc4c3c2C=NNC4=O)cn1` (top concentration 10000 nM), the “selective drug sensitivity score” value was found to be 4.98.

As for `Cn1cc(-c2ccc(F)c(C(F)(F)F)c2)nc1C1CCN(c2ncnc3[nH]ncc23)CC1` (top concentration 10000 nM), the “selective drug sensitivity score” value worked out at 1.56.

As to `O=C(Nc1ccc2[nH]nc(-c3ccncc3)c2c1)[C@@H]1CCN(CC(=O)N2CCN(c3ccc(-c4ncccn4)cc3)CC2)C1` (top concentration 10000 nM), the “selective drug sensitivity score” value is -0.54.

On to `CC(C)(C)c1cc(NC(=O)Nc2ccc(Oc3ccnc4[nH]c(=O)cnc34)cc2F)n(-c2ccccc2)n1` (top concentration 25000 nM), for which the “selective drug sensitivity score” value amounted to 2.02.

As to `Nc1ncnc2c1nc(N)n2[C@@H]1O[C@H](CO)[C@@H](O)[C@H]1O` [8-amino-adenosine] (top concentration 50000 nM), the “selective drug sensitivity score” value is 3.18.

Consider `CC(C)[C@@H](CS(=O)(=O)C(C)C)N1C(=O)[C@@](C)(CC(=O)O)C[C@H](c2cccc(Cl)c2)[C@H]1c1ccc(Cl)cc1` [AMG-232] (top concentration 10000 nM), for which the “selective drug sensitivity score” value turned out to be 9.26.

As for `CC(C)[C@H](C(=O)Nc1ccc(C(=O)NO)cc1)c1ccccc1` [AR-42] (top concentration 10000 nM), the “selective drug sensitivity score” value came out at 4.68.

For the compound `O=C(Nc1c[nH]nc1-c1nc2ccc(CN3CCOCC3)cc2[nH]1)NC1CC1` [AT9283] (top concentration 1000 nM), the “selective drug sensitivity score” value came out at 11.7.

Take `CCN(CCO)CCCOc1ccc2c(Nc3cc(CC(=O)Nc4cccc(F)c4)[nH]n3)ncnc2c1` [AZD1152-HQPA] (top concentration 1000 nM): the “selective drug sensitivity score” value amounted to 21.6.

In the case of `Cc1[nH]nc(C(F)(F)F)c1Cc1sc2c(c1C(=O)N1C[C@](C)(O)CO1)c(=O)n(C)c(=O)n2C(C)C` [AZD3965] (top concentration 1000 nM), the “selective drug sensitivity score” value amounted to 0.

Another assay concerns COG-LL-394h. The description is as above. As to conditions: 72 h.
In the case of `COC12C(COC(N)=O)C3=C(C(=O)C(C)=C(N)C3=O)N1CC1NC12` (stereo in doubt) [Mitomycin_C] (top concentration 10000 nM), the “selective drug sensitivity score” value was -2.86.

In the case of `Cc1c(-c2c(-c3ccc(F)o3)sc3ncnc(O[C@H](Cc4ccccc4OCc4ccnn4CC(F)(F)F)C(=O)O)c23)ccc(OCCN2CCN(C)CC2)c1Cl` (top concentration 1000 nM), the “selective drug sensitivity score” value was -4.54.

`Cc1ncc(Cl)cc1NCc1ccc(C(=O)N[C@@H](CC2CCCC2)C(=O)NC2CC2)s1` (top concentration 5000 nM): the “selective drug sensitivity score” value is 1.36.

Consider `CCn1c(-c2nonc2N)nc2c(C#CC(C)(C)O)ncc(OC[C@H]3CCCNC3)c21` (top concentration 10000 nM), for which the “selective drug sensitivity score” value was 2.18.

Regarding `CN(c1ncccc1CNc1nc(Nc2ccc3c(c2)CC(=O)N3)ncc1C(F)(F)F)S(C)(=O)=O` (top concentration 10000 nM), the “selective drug sensitivity score” value was -0.08.

`CNc1ncc2cc(-c3cc(NC(=O)NCCC(C)(C)C)c(F)cc3C)c(C)nc2n1` (top concentration 10000 nM): the “selective drug sensitivity score” value was 5.76.

Take `C[C@@]1(C(=O)Nc2ccc(F)nc2)CCCN1c1nc(Nc2cc(C3CC3)n[nH]2)c2cccn2n1` (top concentration 10000 nM): the “selective drug sensitivity score” value is 5.98.

For `Cc1nc(Nc2n[nH]c3c2CN(C(=O)N[C@H](CN(C)C)c2ccccc2)C3(C)C)c2sccc2n1` (top concentration 10000 nM), the “selective drug sensitivity score” value was -7.92.

Take `Cn1cc(-c2[nH]c3cc(NC(=O)[C@H](N)C4CCCCC4)cc4c3c2C=NNC4=O)cn1` (top concentration 10000 nM): the “selective drug sensitivity score” value was -0.72.

For `Cn1cc(-c2ccc(F)c(C(F)(F)F)c2)nc1C1CCN(c2ncnc3[nH]ncc23)CC1` (top concentration 10000 nM), the “selective drug sensitivity score” value was -0.14.

Regarding `O=C(Nc1ccc2[nH]nc(-c3ccncc3)c2c1)[C@@H]1CCN(CC(=O)N2CCN(c3ccc(-c4ncccn4)cc3)CC2)C1` (top concentration 10000 nM), the “selective drug sensitivity score” value is -0.14.

For `CC(C)(C)c1cc(NC(=O)Nc2ccc(Oc3ccnc4[nH]c(=O)cnc34)cc2F)n(-c2ccccc2)n1` (top concentration 25000 nM), the “selective drug sensitivity score” value turned out to be 0.82.

For the compound `Nc1ncnc2c1nc(N)n2[C@@H]1O[C@H](CO)[C@@H](O)[C@H]1O` [8-amino-adenosine] (top concentration 50000 nM), the “selective drug sensitivity score” value came to 6.58.

`CC(C)[C@@H](CS(=O)(=O)C(C)C)N1C(=O)[C@@](C)(CC(=O)O)C[C@H](c2cccc(Cl)c2)[C@H]1c1ccc(Cl)cc1` [AMG-232] (top concentration 10000 nM): the “selective drug sensitivity score” value was 8.76.

On to `CC(C)[C@H](C(=O)Nc1ccc(C(=O)NO)cc1)c1ccccc1` [AR-42] (top concentration 10000 nM), for which the “selective drug sensitivity score” value is 2.08.

In the case of `O=C(Nc1c[nH]nc1-c1nc2ccc(CN3CCOCC3)cc2[nH]1)NC1CC1` [AT9283] (top concentration 1000 nM), the “selective drug sensitivity score” value is 1.02.

As for `CCN(CCO)CCCOc1ccc2c(Nc3cc(CC(=O)Nc4cccc(F)c4)[nH]n3)ncnc2c1` [AZD1152-HQPA] (top concentration 1000 nM), the “selective drug sensitivity score” value came to 3.24.

`Cc1[nH]nc(C(F)(F)F)c1Cc1sc2c(c1C(=O)N1C[C@](C)(O)CO1)c(=O)n(C)c(=O)n2C(C)C` [AZD3965] (top concentration 1000 nM): the “selective drug sensitivity score” value came out at 0.
